Measurements from PubChem BioAssay (NCI).
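Assay format: 96-well plates, 48-hour exposure. Definition used: TGI = concentration required for complete inhibition of growth.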 Where a SMILES comes first, the peptide text is derived from it. The star is where a group is joined. Fmoc = O=C(OCC1c2ccccc2-c2ccccc21)*; Boc = CC(C)(C)OC(=O)*

Legend:
Experiment in all cases: inhibition of tumour cell growth, NCI panel, 48 h
A498 renal = test system: A498 renal
A549 NSCLC = test system: A549 NSCLC
HOP-92 NSCLC = test system: HOP-92 NSCLC
HT29 colon = test system: HT29 colon
M14 melanoma = test system: M14 melanoma
MDA-N = test system: MDA-N
MOLT-4 leukemia = test system: MOLT-4 leukemia
NCI-H23 lung = test system: NCI-H23 lung
NCI-H522 lung = test system: NCI-H522 lung
SN12C renal = test system: SN12C renal
U251 CNS = test system: U251 CNS

| Structure (SMILES) | TGI (A498 renal) [µM] | TGI (A549 NSCLC) [µM] | TGI (HOP-92 NSCLC) [µM] | TGI (HT29 colon) [µM] | TGI (M14 melanoma) [µM] | TGI (MDA-N) [µM] | TGI (MOLT-4 leukemia) [µM] | TGI (NCI-H23 lung) [µM] | TGI (NCI-H522 lung) [µM] | TGI (SN12C renal) [µM] | TGI (U251 CNS) [µM] |
| --- | --- | --- | --- | --- | --- | --- | --- | --- | --- | --- | --- |
| CCOC(=O)c1c(N2CCCC2)[nH]c(=O)c(C(c2ccco2)c2c(O)c(C(=O)OCC)c(N3CCCC3)[nH]c2=O)c1O | > 100 | > 100 | > 100 | > 100 | > 100 | > 100 | > 100 | > 100 | > 100 | > 100 | > 100 |
| CC(C)(C)OC(=O)NCCCCC(NC(=O)OCC1c2ccccc2-c2ccccc21)C(=O)N1CCCC1C(=O)NCC(N)=O (stereo not drawn) (Fmoc-Lys(Boc)-Pro-Gly-NH2; configuration not given here) | – | > 100 | 48.2 | > 100 | > 100 | 49.9 | 77.3 | > 100 | – | 30.2 | 33.1 |
| O=C1/C(=C/c2ccccc2O)N=C(c2ccccc2)N1c1nc2ccccc2s1 | 53.1 | – | > 100 | 74 | 85.6 | 8.55 | 60.7 | 38.5 | 17.2 | – | 28.7 |
| O=C1CCCC/C1=C\c1ccc(Br)cc1 | – | 67.7 | 35.1 | – | 26.1 | 38.3 | 6.24 | 33.2 | 31.1 | 41.5 | 9.79 |
| NC1CC2NC3CCCCC3NC2CC1N (configuration not stated) | 79.4 | > 100 | – | > 100 | > 100 | > 100 | 92.9 | > 100 | 39.9 | > 100 | > 100 |
| O=C1[C@@H]2[C@@H](c3ccccc3)[C@]2(Cl)C(=O)[C@H]2[C@H](c3ccccc3)[C@@]12Cl | > 100 | > 100 | > 100 | > 100 | > 100 | – | > 100 | > 100 | > 100 | > 100 | > 100 |
| O=C(/C=C/c1ccc(/C=C/C(=O)c2ccc(O)cc2)cc1)c1ccc(O)cc1 | > 100 | > 100 | > 100 | > 100 | > 100 | > 100 | > 100 | > 100 | – | > 100 | > 100 |
| COC(=O)C1=C(O)C(C(=O)OC)[C@]2(O)[C@H](C(=O)OC)[C@H]1C[C@@H](c1c(Cl)cccc1Cl)[C@H]2C(=O)OC (some centres not stated) | 4.15 | 6.21 | 14 | 7.16 | 2.88 | 3.02 | 5.31 | 5.44 | – | 5.2 | 2.99 |
| CC1C2CC(C(S(=O)(=O)N3CCOCC3)/C2=N\O)C1(C)C (configuration not stated) | > 100 | > 100 | > 100 | > 100 | > 100 | > 100 | > 100 | > 100 | > 100 | > 100 | – |
| Cn1/c(=N\S(=O)(=O)c2ccccc2)n(S(=O)(=O)c2ccccc2)c2ccccc21 | > 100 | > 100 | – | > 100 | > 100 | > 100 | > 100 | > 100 | > 100 | > 100 | > 100 |
| COc1ccc2oc(OC)c(CC=C(C)C)c(=O)c2c1C | > 100 | > 100 | – | > 100 | > 100 | > 100 | > 100 | > 100 | > 100 | > 100 | > 100 |
| COc1ccc2sc(-n3nc4ccccc4c3Nc3nc4ccc(OC)cc4s3)nc2c1 | 5.63 | 18.5 | 15.5 | 14.7 | 35.8 | – | – | 5.25 | 17.2 | 18.5 | 11 |
| CCOC(=O)C1OC(C2(C)OC3(OC4(C=CC3O)OC(C(C)C(=O)C(C)C(O)C(C)CC(C)c3c(Cl)cc(C)c(O)c3C(=O)O)C(C)CC4C)C(C)C2OC)CC1O (configuration not stated) | 2.51 | 7.27 | 5.77 | 3.57 | 6.38 | 4.76 | – | 5.77 | 0.434 | 4.84 | 4.24 |
| O=S(=O)(O)ON=C1c2ccccc2-c2ccccc21 | > 100 | > 100 | > 100 | > 100 | > 100 | – | > 100 | > 100 | > 100 | > 100 | > 100 |
| Cc1ccc(-n2[nH]nc(C#N)c2=O)cc1 | – | > 100 | – | > 100 | > 100 | > 100 | > 100 | > 100 | > 100 | > 100 | > 100 |
| O=C(Cc1nccc2c1[nH]c1ccccc12)OC1C#CCSCC#C/C=C\1 (configuration not stated) | > 100 | > 100 | > 100 | > 100 | > 100 | > 100 | > 100 | – | > 100 | > 100 | > 100 |
| CCN1CCN(c2nc3ccc([N+](=O)[O-])cc3nc2C(=O)c2ccccc2)CC1 | 73.2 | 33.7 | 32.7 | – | 25.7 | 33.9 | > 100 | 34.4 | 10.3 | 30.9 | 31.9 |
| CN(C)c1nncc2[nH]cnc12 | > 100 | > 100 | – | > 100 | > 100 | – | > 100 | > 100 | – | > 100 | > 100 |
| Cc1ccc(O)c(-c2cc(-c3cccc(Cl)c3)c(C#N)c(N)n2)c1 | – | 43.4 | 48.1 | 58.3 | 46.1 | 37.8 | 38.6 | 77.6 | 30 | 47.6 | 30 |
| CCOC(=O)C(C(=S)Nc1ccccc1)c1nn2c(=O)cc(C)nc2s1 (configuration not stated) | – | > 100 | 57.4 | 41.4 | 57.1 | – | 69.1 | 89.5 | 53.9 | > 100 | 83 |
| O=c1[nH]c(Nc2cc(Cl)cc(Cl)c2)nc2nc[nH]c12 | – | > 75 | > 75 | > 75 | > 75 | > 75 | > 75 | > 75 | – | > 75 | > 75 |
